In patent US20040063626A1 (priority 2000, published 2004):

Test system: C57BL/6 mice
Assay: Hair regrowth test on shaved backs of C57BL/6 mice
Type: in vivo
Details: 100 μl (0.1% w/v) applied over hair removed area once a day for 30 days; female C57BL/6 mice
Source text: C57BL/6 mice (female), 42˜49 days old, were used in this test.
First of all, mice were removed of hair on their backs using an electric shaver, and weighed. The mice were divided into several groups with weights equally distributed. […] The degree of hair growth was observed by naked eye and the back sides of the mice were photographed.

Cyclosporin A 4,7-bis(thioamide)
degree of hair growth observed by naked eye (hair regrowth effect): no significant effect

Cyclosporin A 4-thioamide
degree of hair growth observed by naked eye (hair regrowth effect): no significant effect
